Patent publication US10183009B2, “Therapeutic compounds and uses thereof” (GENENTECH, INC., priority 2014, dated 2019)

These compounds were tested against BRD4(BD1) (Homo sapiens (Human), UniProt O60885) (assay: BRD4 AlphaLisa Binding Assay). Details: not given.

| Compound | IC50 [µM] |
| --- | --- |
| C/C=C/Cn1cc(-c2cc(C(=O)NC3CCC3)ccc2OC)c2cc[nH]c2c1=O [Example 75, 3-[6-[(E)-but-2-enyl]-7-oxo-1H-pyrrolo[2,3-c]pyridin-4-yl]-N-cyclobutyl-4-methoxy-benzamide] | 1.3 |
| C/C=C/Cn1cc(-c2cc(C(=O)NC3CC3)ccc2OC)c2cc[nH]c2c1=O [Example 63, 3-[6-[(E)-but-2-enyl]-7-oxo-1H-pyrrolo[2,3-c]pyridin-4-yl]-N-cyclopropyl-4-methoxy-benzamide] | 0.98 |
| C/C=C/Cn1cc(-c2ccc3c(c2)NC(C)CC(=O)N3)c2cc[nH]c2c1=O (stereo not shown) [Example 84, 7-[6-[(E)-but-2-enyl]-7-oxo-1H-pyrrolo[2,3-c]pyridin-4-yl]-4-methyl-1,3,4,5-tetrahydro-1,5-benzodiazepin-2-one] | 1.9 |
| CN(C)C(=O)c1cccc(-c2cn(CC3CCC3)c(=O)c3[nH]ccc23)c1 [Example 11, 3-[6-(cyclobutylmethyl)-7-oxo-1H-pyrrolo[2,3-c]pyridin-4-yl]-N,N-dimethyl-benzamide] | 3.6 |
| C/C=C/Cn1cc(-c2ccc(C(N)=O)c(F)c2)c2cc[nH]c2c1=O [Example 20, 4-[6-[(E)-but-2-enyl]-7-oxo-1H-pyrrolo[2,3-c]pyridin-4-yl]-2-fluoro-benzamide] | 0.89 |
| CC/C=C/Cn1cc(-c2cccc(C(=O)N(C)C)c2)c2cc[nH]c2c1=O [Example 7, N,N-dimethyl-3-[7-oxo-6-[(E)-pent-2-enyl]-1H-pyrrolo[2,3-c]pyridin-4-yl]benzamide] | 2.7 |
| C/C=C/Cn1cc(-c2cc(C(=O)NC3CCOC3)ccc2OC)c2cc[nH]c2c1=O (stereo not shown) [Example 65, 3-[6-[(E)-but-2-enyl]-7-oxo-1H-pyrrolo[2,3-c]pyridin-4-yl]-4-methoxy-N-tetrahydrofuran-3-yl-benzamide] | 1.6 |
| CN(C)C(=O)c1cccc(-c2cn(CC3CCCCC3)c(=O)c3[nH]ccc23)c1 [Example 9, 3-[6-(cyclohexylmethyl)-7-oxo-1H-pyrrolo[2,3-c]pyridin-4-yl]-N,N-dimethyl-benzamide] | 15 |
| C/C=C/Cn1cc(-c2cccc(C(=O)NC3CC3)c2)c2cc[nH]c2c1=O [Example 26, 3-[6-[(E)-but-2-enyl]-7-oxo-1H-pyrrolo[2,3-c]pyridin-4-yl]-N-cyclopropyl-benzamide] | 0.83 |
| C/C=C/Cn1cc(-c2cccc(C(N)=O)c2F)c2cc[nH]c2c1=O [Example 39, 3-[6-[(E)-but-2-enyl]-7-oxo-1H-pyrrolo[2,3-c]pyridin-4-yl]-2-fluoro-benzamide] | 1.2 |
| C/C=C/Cn1cc(-c2ccc(C(C)C)cc2)c2cc[nH]c2c1=O [Example 31, 6-[(E)-but-2-enyl]-4-(4-isopropylphenyl)-1H-pyrrolo[2,3-c]pyridin-7-one] | 1.6 |
| CN(C)C(=O)c1cccc(-c2cn(CCC3CC3)c(=O)c3[nH]ccc23)c1 [Example 4, 3-[6-(2-cyclopropylethyl)-7-oxo-1H-pyrrolo[2,3-c]pyridin-4-yl]-N,N-dimethyl-benzamide] | 2.1 |
| CN(C)C(=O)c1cccc(-c2cn(CCC3CCCCC3)c(=O)c3[nH]ccc23)c1 [Example 12, 3-[6-(2-cyclohexylethyl)-7-oxo-1H-pyrrolo[2,3-c]pyridin-4-yl]-N,N-dimethyl-benzamide] | 12 |
| C/C=C/Cn1cc(-c2ccc(C(C)(C)C)cc2)c2cc[nH]c2c1=O [Example 23, 6-[(E)-but-2-enyl]-4-(4-tert-butylphenyl)-1H-pyrrolo[2,3-c]pyridin-7-one] | 2.1 |
| CC(C)Cn1cc(-c2cccc(C(=O)N(C)C)c2)c2cc[nH]c2c1=O [Example 16, 3-(6-isobutyl-7-oxo-1H-pyrrolo[2,3-c]pyridin-4-yl)-N,N-dimethyl-benzamide] | 8 |
| CCCCn1cc(-c2cccc(C(=O)N(C)C)c2)c2cc(C)[nH]c2c1=O [Example 86, 3-(6-butyl-2-methyl-7-oxo-1H-pyrrolo[2,3-c]pyridin-4-yl)-N,N-dimethyl-benzamide] | 2.3 |
| C/C=C/Cn1cc(-c2cc(C(N)=O)ccc2F)c2cc[nH]c2c1=O [Example 40, 3-[6-[(E)-but-2-enyl]-7-oxo-1H-pyrrolo[2,3-c]pyridin-4-yl]-4-fluoro-benzamide] | 1.8 |
| C/C=C/Cn1cc(-c2cc(C(=O)NCC(F)F)ccc2OC)c2cc[nH]c2c1=O [Example 69, 3-[6-[(E)-but-2-enyl]-7-oxo-1H-pyrrolo[2,3-c]pyridin-4-yl]-N-(2,2-difluoroethyl)-4-methoxy-benzamide] | 0.32 |
| C/C=C/Cn1cc(-c2ccc(C(=O)NC3CC3)cc2)c2cc[nH]c2c1=O [Example 28, 4-[6-[(E)-but-2-enyl]-7-oxo-1H-pyrrolo[2,3-c]pyridin-4-yl]-N-cyclopropyl-benzamide] | 0.51 |
| CN(C)C(=O)c1cccc(-c2cn(CC3CCCC3)c(=O)c3[nH]ccc23)c1 [Example 5, 3-[6-(cyclopentylmethyl)-7-oxo-1H-pyrrolo[2,3-c]pyridin-4-yl]-N,N-dimethyl-benzamide] | 6.4 |
| CCCCCn1cc(-c2cccc(C(=O)N(C)C)c2)c2cc[nH]c2c1=O [Example 13, N,N-dimethyl-3-(7-oxo-6-pentyl-1H-pyrrolo[2,3-c]pyridin-4-yl)benzamide] | 4.5 |
| C/C=C/Cn1cc(-c2cc(C(=O)NCC3CC3)ccc2OC)c2cc[nH]c2c1=O [Example 76, 3-[6-[(E)-but-2-enyl]-7-oxo-1H-pyrrolo[2,3-c]pyridin-4-yl]-N-(cyclopropylmethyl)-4-methoxy-benzamide] | 1.2 |

Each compound was assayed against BRD9 (Homo sapiens (Human), UniProt Q9H8M2) (assay: BRD9 AlphaLisa Binding Assay). Details: not given.
BRD9, sequence (Q9H8M2 134-239 limits assumed): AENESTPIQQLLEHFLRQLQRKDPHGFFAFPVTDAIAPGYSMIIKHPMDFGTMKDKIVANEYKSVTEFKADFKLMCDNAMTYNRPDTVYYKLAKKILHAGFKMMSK
Experimental: After 20 minutes incubation at room temperature AlphaLisa Streptavidin Acceptor Beads (Perkin-A[…]) and AlphaLisa Nickel donor beads (Perkin AS 10 ID) were added to a final concentration of 15 ug/mL each.

| Compound | IC50 [µM] |
| --- | --- |
| C/C=C/Cn1cc(-c2cccc(C(=O)N(C)C)c2F)c2cc[nH]c2c1=O [Example 42, 3-[6-[(E)-but-2-enyl]-7-oxo-1H-pyrrolo[2,3-c]pyridin-4-yl]-fluoro-N,N-dimethyl-benzamide] | 0.082 |
| C/C=C/Cn1cc(-c2cnc(C(=O)N3CCOCC3)nc2)c2cc(C)[nH]c2c1=O [Example 105, 6-[(E)-but-2-enyl]-2-methyl-4-[2-(morpholine-4-carbonyl)pyrimidin-5-yl]-1H-pyrrolo[2,3-c]pyridin-7-one] | 0.083 |
| C/C=C/Cn1cc(-c2ccc(C(=O)N3CCN(C)CC3)c(Cl)c2)c2cc(C)[nH]c2c1=O [Example 99, 6-[(E)-but-2-enyl]-4-[3-chloro-4-(4-methylpiperazine-1-carbonyl)phenyl]-2-methyl-1H-pyrrolo[2,3-c]pyridin-7-one] | 0.009 |
| CCCCn1cc(-c2ncc(C(=O)N3CCOCC3)cc2OC)c2cc(C)[nH]c2c1=O [Example 123, 6-butyl-4-[3-methoxy-5-(morpholine-4-carbonyl)-2-pyridyl]-2-methyl-1H-pyrrolo[2,3-c]pyridin-7-one] | 0.21 |
| C/C=C/Cn1cc(-c2cc(C(=O)NCCO)ccc2OC)c2cc[nH]c2c1=O [Example 73, 3-[6-[(E)-but-2-enyl]-7-oxo-1H-pyrrolo[2,3-c]pyridin-4-yl]-N-(2-hydroxyethyl)-4-methoxy-benzamide] | 0.035 |
| C/C=C/Cn1cc(-c2cc(C(=O)NCCN(C)C)ccc2OC)c2cc[nH]c2c1=O [Example 72, 3-[6-[(E)-but-2-enyl]-7-oxo-1H-pyrrolo[2,3-c]pyridin-4-yl]-N-[2-(dimethylamino)ethyl]-4-methoxy-benzamide] | 0.023 |
| C/C=C/Cn1cc(-c2ccc(C(=O)N3CCC(C(N)=O)CC3)c(Cl)c2)c2cc(C)[nH]c2c1=O [Example 113, (E)-1-(4-(6-(but-2-en-1-yl)-2-methyl-7-oxo-6,7-dihydro-1H-pyrrolo[2,3-c]pyridin-4-yl)-2-chlorobenzoyl)piperidine-4-carboxamide] | 0.003 |
| C/C=C/Cn1cc(-c2cc(C(=O)NCCC)ccc2OC)c2cc[nH]c2c1=O [Example 74, 3-[6-[(E)-but-2-enyl]-7-oxo-1H-pyrrolo[2,3-c]pyridin-4-yl]-4-methoxy-N-propyl-benzamide] | 0.027 |

Each compound was assayed against TAF1-BD2 (Homo sapiens (Human), UniProt P21675) (assay: TAF1-BD2 TR-FRET Binding Assay). Details: Assay: TAF-1.
TAF1-BD2, sequence (P21675 1525-1656 limits assumed): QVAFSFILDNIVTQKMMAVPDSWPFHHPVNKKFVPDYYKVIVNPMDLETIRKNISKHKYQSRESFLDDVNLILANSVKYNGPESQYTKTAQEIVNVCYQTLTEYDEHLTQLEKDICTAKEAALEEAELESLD
Experimental: Specifically, in a 384 well ProxiPlate TAF1-BD2 (6 nM final) was combined with biotin-ligand (50 nM final) in 50 mM HEPES (pH 7.5), 50 mM NaCl, 1 mM TCEP, 0.01% (w/v) BSA, and 0.008% (w/v) Brij-35 either in the presence of DMSO (final 0.2% DMSO) or compound dilution series in DMSO. After 10 minutes incubation at room temperature, a mixture Eu-W1024 Anti-6×His antibody (Perkin Elmer AD0110) and SureLight™ Allophycocyanin-Streptavidin (APC-SA, Perkin Elmer CR130-100) were added to a final concentrations of 0.2 nMolar antibody and 25 nMolar APC-SA, respectively. After twenty minutes of equilibration, the plates were read on an Envision instrument and IC50s calculated using a four parameter non-linear curve fit.

| Compound | IC50 [µM] |
| --- | --- |
| C/C=C/Cn1cc(-c2ccc(CO)cc2)c2cc[nH]c2c1=O [Example 29, 6-[(E)-but-2-enyl]-4-[4-(hydroxymethyl)phenyl]-1H-pyrrolo[2,3-c]pyridin-7-one] | 4.5 |
| CC(C)=CCn1cc(-c2cccc(C(=O)N(C)C)c2)c2cc[nH]c2c1=O [Example 3, N,N-dimethyl-3-[6-(3-methylbut-2-enyl)-7-oxo-1H-pyrrolo[2,3-c]pyridin-4-yl]benzamide] | 5.2 |
| Cc1cc2c(-c3cccc(C(=O)N(C)C)c3)cn(CCC3CC3)c(=O)c2[nH]1 [Example 85, 3-[6-(2-cyclopropylethyl)-2-methyl-7-oxo-1H-pyrrolo[2,3-c]pyridin-4-yl]-N,N-dimethyl-benzamide] | 0.48 |
| C/C=C/Cn1cc(-c2cccc(C(=O)NC)c2)c2cc[nH]c2c1=O [Example 25, 3-[6-[(E)-but-2-enyl]-7-oxo-1H-pyrrolo[2,3-c]pyridin-4-yl]-N-methyl-benzamide] | 0.64 |
| C/C=C/Cn1cc(-c2ccc(C(=O)N(C)C)c(Cl)c2)c2cc[nH]c2c1=O [Example 43, 4-[6-[(E)-but-2-enyl]-7-oxo-1H-pyrrolo[2,3-c]pyridin-4-yl]-2-chloro-N,N-dimethyl-benzamide] | 2 |
| CN(C)C(=O)c1cccc(-c2cn(CC3CC3)c(=O)c3[nH]ccc23)c1 [Example 17, 3-[6-(cyclopropylmethyl)-7-oxo-1H-pyrrolo[2,3-c]pyridin-4-yl]-N,N-dimethyl-benzamide] | 5.6 |
| C/C=C/Cn1cc(-c2cc(C(=O)N3CCC3)ccc2OC)c2cc[nH]c2c1=O [Example 71, 4-[5-(azetidine-1-carbonyl)-2-methoxy-phenyl]-6-[(E)-but-2-enyl]-1H-pyrrolo[2,3-c]pyridin-7-one] | 1.8 |
